{"source": "patent US20250205230A1", "about": "(priority 2022, published 2025)", "key": {"VSV-G glycoprotein": {"test_system": "VSV-G glycoprotein", "format": "cell-based, vesicular stomatitis Indiana virus (VSV)"}, "VSV-G": {"test_system": "VSV-G", "format": "cell-based, vesicular stomatitis Indiana virus (VSV)"}}}
{"compound": "CN(N=Cc1ccc(O)c(O)c1)c1nc(-c2ccccc2)cc(-c2ccccc2)n1", "note": "[MK-28, 4-((2-(4,6-diphenylpyrimidin-2-yl)-2-methylhydrazineylidene)methyl) benzene-1,2-diol]", "values": [{"measurement": "Endo H-resistance of VSV-G relative to untreated control cells", "setting": "VSV-G glycoprotein", "result": "about half the resistance of untreated control cells"}, {"measurement": "Endo H-resistance of VSV-G", "setting": "VSV-G", "result": "decreased considerably"}]}
